How the values were obtained:
Assay in all cases: relative viability (nuclei count vs DMSO), 5 days (fraction); higher = more cells survive
NCI-H2170 = system: NCI-H2170
Outline: (§1)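 Relative viability divides the nuclei count in treated wells by that in vehicle wells. Lung cancer cell lines were seeded in 1536-well plates, dosed by pin tool the next day, and fixed and stained after 5 days in one step with final 0.05% Triton X-100, 1% formaldehyde and 1 ug/ml Hoechst. Dosing was a single drug or a fixed anchor-drug dose plus five library-drug doses (not always all listed) in √10 steps, and values are medians of duplicate plates imaged at 4×.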

ABC-1 = system: ABC-1
Outline: as §1

NCI-H661 = system: NCI-H661
Outline: as §1

EKVX = system: EKVX
Outline: as §1

COR-L23 = system: COR-L23
Outline: as §1

NCI-H2023 = system: NCI-H2023
Outline: as §1

LU99A = system: LU99A
Outline: as §1

NCI-H1650 = system: NCI-H1650
Outline: as §1

COR-L 105 = system: COR-L 105
Outline: as §1

NCI-H3122 = system: NCI-H3122
Outline: as §1

HCC-366 = system: HCC-366
Outline: as §1

HARA = system: HARA
Outline: as §1

201T = system: 201T
Outline: as §1

NCI-H2009 = system: NCI-H2009
Outline: as §1

NCI-H727 = system: NCI-H727
Outline: as §1

NCI-H838 = system: NCI-H838
Outline: as §1

NCI-H1437 = system: NCI-H1437
Outline: as §1

NCI-H1666 = system: NCI-H1666
Outline: as §1

PC-14 = system: PC-14
Outline: as §1

BEN = system: BEN
Outline: as §1

NCI-H441 = system: NCI-H441
Outline: as §1

CAL-12T = system: CAL-12T
Outline: as §1

LK-2 = system: LK-2
Outline: as §1

SW 900 = system: SW 900
Outline: as §1

In the case of `COc1cc(N2CCC(C(N)=O)CC2)ccc1Nc1nc(N)c(Cl)c(Nc2ccccc2S(=O)(=O)C(C)C)n1` [HG-5-88-01] + COc1cc2c(Oc3ccc(NC(=O)C4(C(=O)Nc5ccc(F)cc5)CC4)cc3F)ccnc2cc1OCCCN1CCOCC1 [Foretinib] (partner 0.25 µM), the relative viability (NCI-H2170; first compound 0.04 µM) is reported as 1.01, the relative viability (NCI-H2170; first compound 0.1265 µM) is reported as 0.973 and the relative viability (NCI-H2170; first compound 0.4 µM) is reported as 0.967. For the same compound, the relative viability (NCI-H2170; first compound 1.265 µM) was 0.947, the relative viability (NCI-H2170; first compound 4 µM) was 1.12 and the relative viability (ABC-1; first compound 0.04 µM) was 0.931. It also gave a relative viability (ABC-1; first compound 0.1265 µM) of 1.16, a relative viability (ABC-1; first compound 0.4 µM) of 0.73 and a relative viability (ABC-1; first compound 1.265 µM) of 0.719. It also gave a relative viability (ABC-1; first compound 4 µM) of 0.616, a relative viability (NCI-H661; first compound 0.04 µM) of 1.01 and a relative viability (NCI-H661; first compound 0.1265 µM) of 1.05. It also gave a relative viability (NCI-H661; first compound 0.4 µM) of 1.1, a relative viability (NCI-H661; first compound 1.265 µM) of 1.03 and a relative viability (NCI-H661; first compound 4 µM) of 1.09. The relative viability (EKVX; first compound 0.04 µM) was 0.876, the relative viability (EKVX; first compound 0.1265 µM) was 0.759 and the relative viability (EKVX; first compound 0.4 µM) was 0.305. It also gave a relative viability (EKVX; first compound 4 µM) of 0.757, a relative viability (COR-L23; first compound 0.04 µM) of 0.903 and a relative viability (COR-L23; first compound 0.1265 µM) of 0.995. For the same compound, the relative viability (COR-L23; first compound 0.4 µM) was 0.99, the relative viability (COR-L23; first compound 1.265 µM) was 0.768 and the relative viability (COR-L23; first compound 4 µM) was 0.805. It also gave a relative viability (NCI-H2023; first compound 0.04 µM) of 1, a relative viability (NCI-H2023; first compound 0.1265 µM) of 0.899 and a relative viability (NCI-H2023; first compound 0.4 µM) of 0.628. It also gave a relative viability (NCI-H2023; first compound 1.265 µM) of 0.399, a relative viability (NCI-H2023; first compound 4 µM) of 0.507 and a relative viability (LU99A; first compound 0.04 µM) of 0.774. The relative viability (LU99A; first compound 0.1265 µM) was 0.751, the relative viability (LU99A; first compound 0.4 µM) was 0.781 and the relative viability (LU99A; first compound 1.265 µM) was 0.83. The relative viability (LU99A; first compound 4 µM) was 0.801, the relative viability (NCI-H1650; first compound 0.04 µM) was 1.11 and the relative viability (NCI-H1650; first compound 0.1265 µM) was 1.2. The relative viability (NCI-H1650; first compound 0.4 µM) was 1.26, the relative viability (NCI-H1650; first compound 1.265 µM) was 0.751 and the relative viability (NCI-H1650; first compound 4 µM) was 0.836. For the same compound, the relative viability (COR-L 105; first compound 0.04 µM) was 1.05, the relative viability (COR-L 105; first compound 0.1265 µM) was 1.11 and the relative viability (COR-L 105; first compound 0.4 µM) was 1.16. It also gave a relative viability (COR-L 105; first compound 1.265 µM) of 0.969, a relative viability (COR-L 105; first compound 4 µM) of 0.629 and a relative viability (NCI-H3122; first compound 0.04 µM) of 0.891. The relative viability (NCI-H3122; first compound 0.1265 µM) was 0.684, the relative viability (NCI-H3122; first compound 0.4 µM) was 0.205 and the relative viability (NCI-H3122; first compound 1.265 µM) was 0.169. It also gave a relative viability (NCI-H3122; first compound 4 µM) of 0.15, a relative viability (HCC-366; first compound 0.04 µM) of 0.955 and a relative viability (HCC-366; first compound 0.1265 µM) of 0.915. The relative viability (HCC-366; first compound 0.4 µM) was 0.909, the relative viability (HCC-366; first compound 1.265 µM) was 0.856 and the relative viability (HCC-366; first compound 4 µM) was 0.45. The relative viability (HARA; first compound 0.04 µM) was 0.917, the relative viability (HARA; first compound 0.1265 µM) was 0.878 and the relative viability (HARA; first compound 0.4 µM) was 0.875. The relative viability (HARA; first compound 1.265 µM) was 0.733, the relative viability (HARA; first compound 4 µM) was 0.694 and the relative viability (201T; first compound 0.04 µM) was 1.18. The relative viability (201T; first compound 0.1265 µM) was 1.09, the relative viability (201T; first compound 0.4 µM) was 1.12 and the relative viability (201T; first compound 1.265 µM) was 0.444. It also gave a relative viability (201T; first compound 4 µM) of 1.02, a relative viability (NCI-H2009; first compound 0.04 µM) of 1.18 and a relative viability (NCI-H2009; first compound 0.1265 µM) of 1.25. For the same compound, the relative viability (NCI-H2009; first compound 0.4 µM) was 1.14, the relative viability (NCI-H2009; first compound 1.265 µM) was 1.14 and the relative viability (NCI-H2009; first compound 4 µM) was 1.24. It also gave a relative viability (NCI-H727; first compound 0.04 µM) of 1.07, a relative viability (NCI-H727; first compound 0.1265 µM) of 0.843 and a relative viability (NCI-H727; first compound 0.4 µM) of 0.811. For the same compound, the relative viability (NCI-H727; first compound 1.265 µM) was 0.55, the relative viability (NCI-H727; first compound 4 µM) was 0.581 and the relative viability (NCI-H838; first compound 0.04 µM) was 0.939. For the same compound, the relative viability (NCI-H838; first compound 0.1265 µM) was 1.02, the relative viability (NCI-H838; first compound 0.4 µM) was 0.797 and the relative viability (NCI-H838; first compound 1.265 µM) was 0.814. For the same compound, the relative viability (NCI-H838; first compound 4 µM) was 0.893, the relative viability (NCI-H1437; first compound 0.04 µM) was 1.27 and the relative viability (NCI-H1437; first compound 0.1265 µM) was 1.28. For the same compound, the relative viability (NCI-H1437; first compound 0.4 µM) was 0.912, the relative viability (NCI-H1437; first compound 1.265 µM) was 1.2 and the relative viability (NCI-H1437; first compound 4 µM) was 1.37. The relative viability (NCI-H1666; first compound 0.04 µM) was 1.06, the relative viability (NCI-H1666; first compound 0.1265 µM) was 1.06 and the relative viability (NCI-H1666; first compound 0.4 µM) was 1. The relative viability (NCI-H1666; first compound 1.265 µM) was 0.74, the relative viability (NCI-H1666; first compound 4 µM) was 0.677 and the relative viability (PC-14; first compound 0.04 µM) was 0.974. The relative viability (PC-14; first compound 0.1265 µM) was 0.951, the relative viability (PC-14; first compound 0.4 µM) was 0.806 and the relative viability (PC-14; first compound 1.265 µM) was 0.804. For the same compound, the relative viability (PC-14; first compound 4 µM) was 0.699, the relative viability (BEN; first compound 0.04 µM) was 0.399 and the relative viability (BEN; first compound 0.1265 µM) was 0.702. For the same compound, the relative viability (BEN; first compound 0.4 µM) was 0.444, the relative viability (BEN; first compound 1.265 µM) was 0.62 and the relative viability (BEN; first compound 4 µM) was 0.448. It also gave a relative viability (NCI-H441; first compound 0.04 µM) of 0.889, a relative viability (NCI-H441; first compound 0.1265 µM) of 1.06 and a relative viability (NCI-H441; first compound 0.4 µM) of 1. It also gave a relative viability (NCI-H441; first compound 1.265 µM) of 0.771, a relative viability (NCI-H441; first compound 4 µM) of 0.839 and a relative viability (CAL-12T; first compound 0.04 µM) of 1.06. For the same compound, the relative viability (CAL-12T; first compound 0.1265 µM) was 1.19, the relative viability (CAL-12T; first compound 0.4 µM) was 1.05 and the relative viability (CAL-12T; first compound 1.265 µM) was 0.963. For the same compound, the relative viability (CAL-12T; first compound 4 µM) was 0.945, the relative viability (LK-2; first compound 0.04 µM) was 1.13 and the relative viability (LK-2; first compound 0.1265 µM) was 1.39. For the same compound, the relative viability (LK-2; first compound 0.4 µM) was 0.784, the relative viability (LK-2; first compound 1.265 µM) was 0.99 and the relative viability (LK-2; first compound 4 µM) was 0.808. The relative viability (SW 900; first compound 0.04 µM) was 0.996, the relative viability (SW 900; first compound 0.1265 µM) was 1.08 and the relative viability (SW 900; first compound 0.4 µM) was 0.926. For the same compound, the relative viability (SW 900; first compound 1.265 µM) was 0.918 and the relative viability (SW 900; first compound 4 µM) was 0.493.

Reference: the supplement of paper PMC10307832
